Source: patent US11040108B2, “Amino acid- and peptide-steroid conjugates and use thereof” (BRANDEIS UNIVERSITY, priority 2016, dated 2021)
Converted amounts (≈) assume the structure as drawn. “And” between values parts separate entries of the source, which are not always exact repeats. Equal values may be shown once. Read-outs that look alike come from different tables or passages of the source.

Tests used:
A2780cis cells = assay: MTT assay, cytotoxicity against A2780cis; format: cell-based, human
Protocol: HeLa, Saos-2, HS-5, HepG2, T98G, and A2780 cells were purchased from American-type Culture Collection (ATCC, USA). A2780cis cell was purchased from Sigma. HeLa cells, HepG-2 cells, and T98G cells were cultured in MEM Medium supplemented with 10% v/v fetal bovine serum, 100 U/mL penicillin, and 100 μg/mL streptomycin. Saos-2 cells were cultured in McCoy's 5a Medium (for Saos-2) supplemented with 15% v/v fetal bovine serum, 100 U/mL penicillin, and 100 μg/mL streptomycin. HS-5 cells were cultured in Dulbecco's Modified Eagle's medium (DMEM) supplemented with 10% v fetal bovine serum (FBS), 100 U/mL penicillin, and 100 μg/mL streptomycin. A2780cis cells were cultured in RPMI 1640 Medium supplemented with 10% v/v fetal bovine serum, 100 U/mL penicillin, and 100 μg/mL streptomycin (cisplatin only necessary every 2-3 passages). All cells were maintained at 37° C. in a humidified atmosphere of 5% CO2.
(§1) An MTT assay was used to test the cytotoxicity. All different cell lines were seeded in 96-well plates at 1×10^5 cells/well for 24 hours followed by removal of the culture medium and subsequent addition of culture medium containing different concentrations of the precursors. At designated time (24/48/72 hours), 10 μL MTT solution (5 mg/mL) was added to each well and incubated at 37° C. for another 4 hours, and then 100 μL of SDS-HCl solution was added to stop the reduction reaction and dissolve the purple formazan. The absorbance of each well at 595 nm was measured by a multimode microplate reader. The cytotoxicity assay was performed three times and the average value of the three measurements was taken.
The activity of conjugate 1a against a platinum-resistant, ovarian cancer cell line (A2780cis) (Behrens et al., “Characterization of a Cis-Diamminedichloroplatinum(Ii)-Resistant Human Ovarian Cancer Cell Line and its Use in Evaluation of Platinum Analogues,” Cancer Res. 47:414 (1987); Masuda et al., “Increased DNA Repair as a Mechanism of Acquired Resistance to Cis-Diamminedichloroplatinum (II) in Human Ovarian Cancer Cell Lines,” Cancer Res. 48:5713 (1988), which are hereby incorporated by reference in their entirety) was first examined. To assess the efficacy of conjugate 1a, the assay was carried out in parallel using the known, clinically used cytotoxic agent, cisplatin.

[1] = tested on: Kuramochi ovarian cancer cells; assay: MTT assay, cell viability of Kuramochi; format: cell-based; conditions: read-out: IC50 against Kuramochi
Protocol: as §1
Additional cell viability assays were carried out using conjugates 1a and 1b, optionally with 3, against HepG2 human liver carcinoma cells, Saos-2 osteosarcoma cells, T98G glioblastoma cells, HS-5 (normal bone marrow stromal cells), A2780 ovarian cancer cells (parental line to A2780cis), and Kuramochi ovarian cancer cells. Conjugate 1a was particularly effective against ovarian and cervical cancer cells.

A2780 cell line = assay: Cell viability of unstimulated or selected A2780 cell line (acquired resistance); format: cell-based; conditions: after five weeks treatment with gradually increased concentrations; 24, 48, 72 h
Protocol: as §1
The activity of 1a against non-drug resistant cancer cells was assessed using the A2780 cell line.

lipid rafts in HeLa cell = assay: Laurdan staining of lipid rafts, HeLa; format: cell-based, human; conditions: 1a 25 μM, 12 hours
F-actin in HeLa cells = assay: Actin staining (CLSM), HeLa; format: cell-based, human; conditions: 1a 25 μM, 12 hours
Protocol: Cells in exponential growth phase were seeded in confocal dish (3.5 cm) at 1×10^5 to 2×10^5 cells per dish. After putting the dish in incubator for 24 hours, culture medium was removed, and fresh medium containing precursor (12.5 μM 1a for A2780cis, 25 μM 1a for HeLa) was added. After 12 hours, the medium was removed and PBS was used to wash the cells for three times. After fixing by 4% paraformaldehyde for 15 minutes, 1 mL of 0.1% Triton X-100 in PBS buffer was added for 30 minutes. After washing the cells three times by PBS, 1 mL of 0.1% BSA in PBS was added for 30 minutes, and then the cells were washed by PBS for three times. 1 mL of PBS containing 5 unit of Alexa 633 was added to the cells for 1 hour. After removing the buffer and washing the cells three times by PBS, 1 mL of Hoechst (1 μg/mL) was added for 10 minutes. Then, the cells were washed three times with PBS buffer before imaging.
Similar to the case of A2780cis, the change of the viability of the HeLa cells co-incubated with 1a and several specific inhibitors was examined to understand the mechanism of cell death. […] To verify the assemblies of 1b interact with F-actin, actin tracker was used to visualize F-actin filament in HeLa cells.

[2] = tested on: Src, Akt, p-SAPK/JNK in A2780cis cell lines; assay: Expression of Src, Akt and p-SAPK/JNK (CLSM, Western blot); format: cell-based, human
Protocol: Further exploration of the mode of action of 1a against A2780cis and HeLa cells was carried out via Western blot for the following ER stress markers: CHOP, Bip, PDI, IRE1α, Calnexin, Erol-Lα, PERK, and β-actin; or p-SAPK/JNK. Western blot was carried out via gel electrophoresis at […] for 1.5 hrs, and then transferring the protein on the gel to PVDF membranes for overnight at […] (4° C.). After that, the membrane was incubated with primary antibodies (obtained from Cell Signaling Technology) overnight at 4° C. The membrane was then incubated with secondary antibodies for 1 h at room temperature. This was followed by the reaction with ECL solutions for 10 minutes, and analysis of the results by autoradiography. Generation of ROS was detected in CLSM images via DHE emissions in exposed cells. CLSM imaging was carried out at the excitation of 543 nm and DHE emission was detected at the wavelength at 575 nm to 625 nm; or detection of anti-phospho-SRC and anti-phospho-Akt.
In addition, 1a causes down regulation of cell survival proteins, Akt (Alexander, “Inhibiting the Akt Pathway in Cancer Treatment,” Pharmacy & Therapeutics 36(4): 225-227 (2011), which is hereby incorporated by reference in its entirety) and Src (Irby et al., “Role of Src Expression and Activation in Human Cancer,” Oncogene 19(49):5636-5642 (2000), which is hereby incorporated by reference in its entirety). […]

A2780cis cell lines = assay: Combination of 1a with other anti-cancer agents; format: cell-based, human; conditions: mixture of 1a with TIC10, Apo2L/TRAIL or doxorubicin
Protocol: In addition, 1a causes down regulation of cell survival proteins, Akt (Alexander, “Inhibiting the Akt Pathway in Cancer Treatment,” Pharmacy & Therapeutics 36(4): 225-227 (2011), which is hereby incorporated by reference in its entirety) and Src (Irby et al., “Role of Src Expression and Activation in Human Cancer,” Oncogene 19(49):5636-5642 (2000), which is hereby incorporated by reference in its entirety). Treatment of A2780cis cell lines with 1a (12.5 μM) for 24 hours downregulates expression of Src (FIGS. 13A-B) and Akt (FIGS. 13C-D). […] When used in combination with other anti-cancer agents, TIC10, Apo2L/TRAIL, and doxorubicin, a mixture of 1a with the individual anti-cancer agents was prepared, and then the cells were incubated with the mixture.

## CC(C)CCC[C@@H](C)C1CC[C@H]2[C@@H]3CC=C4CC(OC(=O)NC(Cc5ccc(OP(=O)(O)O)cc5)C(=O)O)CC[C@]4(C)[C@H]3CC[C@]12C (stereo partly drawn) [1a, Cholesterol-(phospho)D-Tyr]
A2780cis cells; 1a 12.5 μM + ALP 1 U/mL, 48 hour co-culture
  cell viability of A2780cis treated by 1a with exogenous ALP: partially rescued
A2780cis cells; 1a 12.5 μM + L-Phe or levamisole 1 mM, 48 hours
  cell viability of A2780cis treated by 1a with ALP inhibitors: higher cell viability
A2780cis cells; 1a 12.5 μM + zVAD-fmk 50 μM, PJ34 1 μM or Nec-1 45 μM, 48 hours
  cell viability of A2780cis treated by 1a with cell death signaling inhibitors: rescued the cells, but only partially
A2780cis cells; 72 hours
  IC50 against A2780cis: 6.3 µg/mL (≈ 9.35 µM)
A2780cis cells; Homo sapiens, A2780cis, 48 h, read-out: IC50 against A2780cis, 48 hours
  IC50: 11 µM and 7.7 µg/mL
A2780cis cells; incubated with 1a at 24 hours
  cells viable (cell viability test, A2780cis): more than 80%
A2780cis cells; read-out: IC50 against A2780cis, 72 hours
  IC50: 9 µM
[1]; 48 hours
  IC50: 19 µM
[1]; 72 hours
  IC50: 13 µM
A2780 cell line
  inhibition of A2780 and acquired drug resistance: able to inhibit ovarian cancer cells without acquired drug resistance
Lipid rafts in HeLa cell
  number of green fluorescent puncta in cell membrane (laurdan, lipid rafts): increased considerably
F-actin in HeLa cells
  F-actin filaments: considerably decreased actin filaments
[2]; 1a 12.5 μM, 24 hours
  expression of Src and Akt: downregulates
[2]; 24 hour treatment, Western blot
  p-SAPK/JNK expression levels: enhanced
A2780cis cell lines
  effect of combination treatments: synergistic effects
